Consider 22 compounds from US20170334899A1, “AMINO-SUBSTITUTED ISOTHIAZOLES” (Bayer Pharma Aktiengesellschaft, priority 2014, published 2017).

Where two headings read alike, the source gives them in different places.

One experiment concerns the target T1, CDK2/CycE (Homo sapiens, UniProt P24941).
T1 construct: GST; purchased ProQinase GmbH (Freiburg, Germany); host or cells: insect cells (Sf9)
Briefly: CDK2/CycE kinase assay (TR-FRET). The format is biochemical. To be noted: avg, read-out: CDK2 avg (IC50 [mol/l]). A digest of the protocol: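 GST-tagged human CDK2 and CycE from Sf9 cells, preincubated 15 min with compound, then 25 min at 22° C. with 10 μM ATP and 0.75 μM biotinylated Rb-derived peptide (final). Phospho-substrate read by TR-FRET (anti-pRB pSer807/pSer811, Eu anti-mouse IgG, streptavidin-XL665), 665/620 nm ratio, normalised to no-inhibitor and no-enzyme controls.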
(TR-FRET usually uses a lanthanide donor and a delayed reading to cut background.)

In experiment [1] the test system is human cervical tumor cell line HeLa (ATCC CCL-2). Kind of experiment: SAC-Formation - Paclitaxel-Induced Assay. To be noted: 24 h, HeLa cells, paclitaxel 0.05 μM, test range 0.005 μM-20 μM, read-out: IC50 [mol/l] SAC-Formation - Paclitaxel-Induced Assay. The experiment is classed as cell-based. A digest of the protocol: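 HeLa cells incubated overnight at 37° C, then given paclitaxel (0.05 μM final) plus test compound (0.005–20 μM, 0.5% DMSO) together for 24 h at 37° C. Fixed cells stained for phospho-histone H3 Ser10 (mitotic cells) and Hoechst 33342 (cell count); imaging-derived mitotic index fitted by four-parameter Hill equation.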

Turning to `Cc1nsc(Nc2cnc(C(F)(F)F)cn2)c1C(=O)Nc1ccc(OCCCN(C)CC(F)F)nc1` [Example 353, N-(6-{3-[(2,2-difluoroethyl)(methyl)amino]propoxy}pyridin-3-yl)-3-methyl-5-{[5-(trifluoromethyl)pyrazin-2-yl]amino}-1,2-thiazole-4-carboxamide], the IC50 on CDK2/CycE was no less than 20000 nM; in experiment [1] (Homo sapiens, HeLa), 150 nM.

Consider `Cc1nsc(Nc2cnc(C(F)(F)F)cn2)c1C(=O)Nc1ccc(OCC2CCCN(CC(F)(F)F)C2)nc1` (stereo not drawn) [Example 326, 3-methyl-N-(6-{[1-(2,2,2-trifluoroethyl)piperidin-3-yl]methoxy}pyridin-3-yl)-5-{[5-(trifluoromethyl)pyrazin-2-yl]amino}-1,2-thiazole-4-carboxamide], for which the IC50 at CDK2/CycE was no less than 20000 nM; in experiment [1] (Homo sapiens, HeLa), 2300 nM.

As for `Cc1nsc(Nc2cnc(C(F)(F)F)cn2)c1C(=O)Nc1ccc(N2CCN(CC(F)(F)F)CC2)cn1` [Example 373, 3-methyl-N-{5-[4-(2,2,2-trifluoroethyl)piperazin-1-yl]pyridin-2-yl}-5-{[5-(trifluoromethyl)pyrazin-2-yl]amino}-1,2-thiazole-4-carboxamide], the IC50 at CDK2/CycE is greater than 20000 nM; in experiment [1] (Homo sapiens, HeLa), 190 nM.

On to `Cc1nsc(Nc2cnc(C(F)(F)F)cn2)c1C(=O)Nc1ccc(OC2CCCN(CCC(F)(F)F)C2)nc1` (stereo not drawn) [Example 332, 3-methyl-5-{[5-(trifluoromethyl)pyrazin-2-yl]amino}-N-(6-{[1-(3,3,3-trifluoropropyl)piperidin-3-yl]oxy}pyridin-3-yl)-1,2-thiazole-4-carboxamide], for which the IC50 at CDK2/CycE is no less than 20000 nM; in experiment [1] (Homo sapiens, HeLa), 25 nM.

In the case of `Cc1nsc(Nc2cnc(C(F)(F)F)cn2)c1C(=O)Nc1ccc(OC2CCCN(CC(F)(F)F)C2)nc1` (stereo not drawn) [Example 331, 3-methyl-N-(6-{[1-(2,2,2-trifluoroethyl)piperidin-3-yl]oxy}pyridin-3-yl)-5-{[5-(trifluoromethyl)pyrazin-2-yl]amino}-1,2-thiazole-4-carboxamide], the IC50 on CDK2/CycE is no less than 20000 nM; in experiment [1] (Homo sapiens, HeLa) it was 23 nM.

As for `Cc1nsc(Nc2cnc(C(F)(F)F)cn2)c1C(=O)Nc1ccc(OC2CCCN(CC(F)F)C2)nc1` (stereo not drawn) [Example 330, N-(6-{[1-(2,2-difluoroethyl)piperidin-3-yl]oxy}pyridin-3-yl)-3-methyl-5-{[5-(trifluoromethyl)pyrazin-2-yl]amino}-1,2-thiazole-4-carboxamide], the IC50 was no less than 20000 nM on CDK2/CycE and 25 nM in experiment [1] (Homo sapiens, HeLa).

Regarding `Cc1nsc(Nc2cnc(C(F)(F)F)cn2)c1C(=O)Nc1ccc(O[C@@H]2CCCN(CCC(F)(F)F)C2)nc1` [Example 387, 3-methyl-5-{[5-(trifluoromethyl)pyrazin-2-yl]amino}-N-(6-{[(3R)-1-(3,3,3-trifluoropropyl)piperidin-3-yl]oxy}pyridin-3-yl)-1,2-thiazole-4-carboxamide], the IC50 at CDK2/CycE was greater than 20000 nM; in experiment [1] (Homo sapiens, HeLa), 130 nM.

As to `Cc1nsc(Nc2cnc(C(F)(F)F)cn2)c1C(=O)Nc1ccc(OCC2CCCN(CC(F)F)C2)nc1` (stereo not drawn) [Example 327, N-(6-{[1-(2,2-difluoroethyl)piperidin-3-yl]methoxy}pyridin-3-yl)-3-methyl-5-{[5-(trifluoromethyl)pyrazin-2-yl]amino}-1,2-thiazole-4-carboxamide], the IC50 was no less than 20000 nM on CDK2/CycE and 57 nM in experiment [1] (Homo sapiens, HeLa).

On to `Cc1nsc(Nc2cnc(C(F)(F)F)cn2)c1C(=O)Nc1ccc(F)c(OC[C@@H]2CCN(CCC(F)(F)F)C2)c1` [Example 340, N-(4-fluoro-3-{[(3R)-1-(3,3,3-trifluoropropyl)pyrrolidin-3-yl]methoxy}phenyl)-3-methyl-5-{[5-(trifluoromethyl)pyrazin-2-yl]amino}-1,2-thiazole-4-carboxamide], for which the IC50 at CDK2/CycE is greater than 20000 nM; in experiment [1] (Homo sapiens, HeLa), 35 nM.

As for `CCCCN1CCC(COc2ccc(NC(=O)c3c(C)nsc3Nc3cnc(C(F)(F)F)cn3)cn2)C(F)(F)C1` (stereo not drawn) [Example 396, N-{6-[(1-butyl-3,3-difluoropiperidin-4-yl)methoxy]pyridin-3-yl}-3-methyl-5-{[5-(trifluoromethyl)pyrazin-2-yl]amino}-1,2-thiazole-4-carboxamide], the IC50 is greater than 20000 nM on CDK2/CycE and 18 nM in experiment [1] (Homo sapiens, HeLa).

With `Cc1nsc(Nc2cnc(C(F)(F)F)cn2)c1C(=O)Nc1ccc(OC2CCCN(CCF)C2)nc1` (stereo not drawn) [Example 329, N-(6-{[1-(2-fluoroethyl)piperidin-3-yl]oxy}pyridin-3-yl)-3-methyl-5-{[5-(trifluoromethyl)pyrazin-2-yl]amino}-1,2-thiazole-4-carboxamide], the IC50 on CDK2/CycE is no less than 20000 nM; in experiment [1] (Homo sapiens, HeLa) it was 180 nM.

As for `Cc1nsc(Nc2cnc(C(F)(F)F)cn2)c1C(=O)Nc1ccc(OCCN(C)CCC(F)(F)F)nc1` [Example 351, 3-methyl-N-(6-{2-[methyl(3,3,3-trifluoropropyl)amino]ethoxy}pyridin-3-yl)-5-{[5-(trifluoromethyl)pyrazin-2-yl]amino}-1,2-thiazole-4-carboxamide], the IC50 is no less than 20000 nM at CDK2/CycE and 210 nM in experiment [1] (Homo sapiens, HeLa).

`Cc1nsc(Nc2cnc(C(F)(F)F)cn2)c1C(=O)Nc1ccc(O[C@@H]2CCCN(CC(F)F)C2)nc1` [Example 385, N-(6-{[(3R)-1-(2,2-difluoroethyl)piperidin-3-yl]oxy}pyridin-3-yl)-3-methyl-5-{[5-(trifluoromethyl)pyrazin-2-yl]amino}-1,2-thiazole-4-carboxamide]: the IC50 was greater than 20000 nM at CDK2/CycE and 300 nM in experiment [1] (Homo sapiens, HeLa).

Consider `Cc1nsc(Nc2cnc3ccccc3n2)c1C(=O)Nc1ccc(OC2CCCN(C(=O)OC(C)(C)C)C2)nc1` (stereo not drawn) [Example 31, tert-Butyl 3-{[5-({[3-methyl-5-(quinoxalin-2-ylamino)-1,2-thiazol-4-yl]carbonyl}-amino)pyridin-2-yl]oxy}piperidine-1-carboxylate], for which the IC50 at CDK2/CycE was no less than 20000 nM; in experiment [1] (Homo sapiens, HeLa), 610 nM.

Regarding `Cc1nsc(Nc2cnc(C(F)(F)F)cn2)c1C(=O)Nc1ccc(F)c(OC[C@@H]2CCCN(CCC(F)(F)F)C2)c1` [Example 395, N-(4-fluoro-3-{[(3R)-1-(3,3,3-trifluoropropyl)piperidin-3-yl]methoxy}phenyl)-3-methyl-5-{[5-(trifluoromethyl)pyrazin-2-yl]amino}-1,2-thiazole-4-carboxamide], the IC50 on CDK2/CycE was greater than 20000 nM; in experiment [1], 27 nM; in experiment [1] (Homo sapiens, HeLa), 35 nM.

For `Cc1nsc(Nc2ccc(C#N)cn2)c1C(=O)Nc1ccc(OC2CCNCC2)nc1` [Example 28, 5-[(5-Cyanopyridin-2-yl)amino]-3-methyl-N-[6-(piperidin-4-yloxy)pyridin-3-yl]-1,2-thiazole-4-carboxannide], the IC50 at CDK2/CycE is no less than 20000 nM; in experiment [1] (Homo sapiens, HeLa), 20000 nM.

Turning to `Cc1nsc(Nc2cnc(C(F)(F)F)cn2)c1C(=O)Nc1ccc(N2CCN(CC(F)(F)F)CC2)nc1` [Example 360, 3-methyl-N-{6-[4-(2,2,2-trifluoroethyl)piperazin-1-yl]pyridin-3-yl}-5-{[5-(trifluoromethyl)pyrazin-2-yl]amino}-1,2-thiazole-4-carboxamide], the IC50 is greater than 20000 nM on CDK2/CycE and 75 nM in experiment [1] (Homo sapiens, HeLa).

`CCN1CCC(COc2ccc(NC(=O)c3c(C)nsc3Nc3cnc(C(F)(F)F)cn3)cn2)C(F)(F)C1` (stereo not drawn) [Example 393, N-{6-[(1-ethyl-3,3-difluoropiperidin-4-yl)methoxy]pyridin-3-yl}-3-methyl-5-{[5-(trifluoromethyl)pyrazin-2-yl]amino}-1,2-thiazole-4-carboxamide]: the IC50 at CDK2/CycE is greater than 20000 nM; in experiment [1] (Homo sapiens, HeLa), 440 nM.

In the case of `Cc1nsc(Nc2cnc(C(F)(F)F)cn2)c1C(=O)Nc1ccc(F)c(OCC2CCCN(CC(F)(F)F)C2)c1` (stereo not drawn) [Example 337, N-(4-fluoro-3-{[1-(2,2,2-trifluoroethyl)piperidin-3-yl]methoxy}phenyl)-3-methyl-5-{[5-(trifluoromethyl)pyrazin-2-yl]amino}-1,2-thiazole-4-carboxamide], the IC50 at CDK2/CycE was no less than 20000 nM; in experiment [1] (Homo sapiens, HeLa) it was 51 nM.

On to `Cc1nsc(Nc2cnc(C(F)(F)F)cn2)c1C(=O)Nc1ccc(O[C@H]2CCCN(CC(F)F)C2)nc1` [Example 388, N-(6-{[(3S)-1-(2,2-difluoroethyl)piperidin-3-yl]oxy}pyridin-3-yl)-3-methyl-5-{[5-(trifluoromethyl)pyrazin-2-yl]amino}-1,2-thiazole-4-carboxamide], for which the IC50 at CDK2/CycE was greater than 20000 nM; in experiment [1] (Homo sapiens, HeLa), 80 nM.

For the compound `Cc1nsc(Nc2cnc(C(F)(F)F)cn2)c1C(=O)Nc1ccc(O[C@H]2CCN(CC(F)(F)F)C[C@@H]2F)nc1` [Example 363, N-(6-{[(3S,4S)-3-fluoro-1-(2,2,2-trifluoroethyl)piperidin-4-yl]oxy}pyridin-3-yl)-3-methyl-5-{[5-(trifluoromethyl)pyrazin-2-yl]amino}-1,2-thiazole-4-carboxamide], the IC50 on CDK2/CycE is greater than 20000 nM; in experiment [1] (Homo sapiens, HeLa), 47 nM.

`Cc1nsc(Nc2cnc(C(F)(F)F)cn2)c1C(=O)Nc1ccc(OC[C@@H]2CCCN(CCC(F)(F)F)C2)nc1` [Example 377, 3-methyl-5-{[5-(trifluoromethyl)pyrazin-2-yl]amino}-N-(6-{[(3R)-1-(3,3,3-trifluoropropyl)piperidin-3-yl]methoxy}pyridin-3-yl)-1,2-thiazole-4-carboxamide]: the IC50 at CDK2/CycE is greater than 20000 nM; in experiment [1] (Homo sapiens, HeLa), 88 nM.
